Data published in the supplement of paper PMC11451515.

Tested on: NOMO1
Test: cell viability relative to DMSO control; higher = less cytotoxic
Conditions: 48 h
Method in brief: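 NOMO1 or SEM (500 cells/well) or P12-Ichikawa (1000 cells/well) leukemia cells were adapted for at least four passages in each medium. They were seeded in 1536-well plates (5 μl) and pin-dosed with library compounds in DMSO over an 11-point threefold series, 47 μM to 0.79 nM. CellTiter-Glo One luminescence was read after 48 h at 37°C. Viability is the per-plate percentage relative to DMSO wells, with cell-free wells as background.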

[1] = RPMI 5 mM glucose + 10% FBS, 0.000781 µM
[2] = RPMI 5 mM glucose + 10% FBS, 0.00234 µM
[3] = RPMI 5 mM glucose + 10% FBS, 0.00702 µM
[4] = RPMI 5 mM glucose + 10% FBS, 0.0211 µM
[5] = RPMI 5 mM glucose + 10% FBS, 0.0632 µM
[6] = RPMI 5 mM glucose + 10% FBS, 0.19 µM
[7] = RPMI 5 mM glucose + 10% FBS, 0.569 µM
[8] = RPMI 5 mM glucose + 10% FBS, 1.71 µM
[9] = RPMI 5 mM glucose + 10% FBS, 5.12 µM
[10] = RPMI 5 mM glucose + 10% FBS, 15.4 µM
[11] = RPMI 5 mM glucose + 10% FBS, 46.1 µM
[12] = RPMI 5 mM glucose + 10% dialyzed FBS, 0.000781 µM
[13] = RPMI 5 mM glucose + 10% dialyzed FBS, 0.00234 µM
[14] = RPMI 5 mM glucose + 10% dialyzed FBS, 0.00702 µM
[15] = RPMI 5 mM glucose + 10% dialyzed FBS, 0.0211 µM
[16] = RPMI 5 mM glucose + 10% dialyzed FBS, 0.0632 µM
[17] = RPMI 5 mM glucose + 10% dialyzed FBS, 0.19 µM
[18] = RPMI 5 mM glucose + 10% dialyzed FBS, 0.569 µM
[19] = RPMI 5 mM glucose + 10% dialyzed FBS, 1.71 µM
[20] = RPMI 5 mM glucose + 10% dialyzed FBS, 5.12 µM
[21] = RPMI 5 mM glucose + 10% dialyzed FBS, 15.4 µM
[22] = RPMI 5 mM glucose + 10% dialyzed FBS, 46.1 µM
[23] = HPLM + 10% dialyzed FBS, 0.000781 µM
[24] = HPLM + 10% dialyzed FBS, 0.00234 µM
[25] = HPLM + 10% dialyzed FBS, 0.00702 µM
[26] = HPLM + 10% dialyzed FBS, 0.0211 µM
[27] = HPLM + 10% dialyzed FBS, 0.0632 µM
[28] = HPLM + 10% dialyzed FBS, 0.19 µM
[29] = HPLM + 10% dialyzed FBS, 0.569 µM
[30] = HPLM + 10% dialyzed FBS, 1.71 µM
[31] = HPLM + 10% dialyzed FBS, 5.12 µM
[32] = HPLM + 10% dialyzed FBS, 15.4 µM
[33] = HPLM + 10% dialyzed FBS, 46.1 µM

| SMILES | cell viability [1] | cell viability [2] | cell viability [3] | cell viability [4] | cell viability [5] | cell viability [6] | cell viability [7] | cell viability [8] | cell viability [9] | cell viability [10] | cell viability [11] | cell viability [12] | cell viability [13] | cell viability [14] | cell viability [15] | cell viability [16] | cell viability [17] | cell viability [18] | cell viability [19] | cell viability [20] | cell viability [21] | cell viability [22] | cell viability [23] | cell viability [24] | cell viability [25] | cell viability [26] | cell viability [27] | cell viability [28] | cell viability [29] | cell viability [30] | cell viability [31] | cell viability [32] | cell viability [33] |
| --- | --- | --- | --- | --- | --- | --- | --- | --- | --- | --- | --- | --- | --- | --- | --- | --- | --- | --- | --- | --- | --- | --- | --- | --- | --- | --- | --- | --- | --- | --- | --- | --- | --- |
| Cc1cccc(-c2nn(C(=S)Nc3ccccc3)cc2-c2ccnc3ccccc23)n1 | 108% | 118% | 109% | 122% | 111% | 113% | 119% | 108% | 115% | 81.6% | 94.9% | 115% | 122% | 112% | 119% | 115% | 103% | 111% | 104% | 117% | 112% | 102% | – | – | – | – | – | – | – | – | – | – | – |
| N[S+](=O)([O-])c1cc(Cl)c(Cl)c([S+](N)(=O)[O-])c1 | 112% | 95.7% | 96% | 101% | 104% | 93.7% | 99.3% | 95.3% | 100% | 89.3% | 87.5% | 97.9% | 99.1% | 110% | 97.5% | 108% | 95.7% | 98.5% | 92.6% | 91.7% | 100% | 85.8% | 112% | 92.2% | 107% | 105% | 106% | 104% | 116% | 98.3% | 86.5% | 82.6% | 94.3% |
| CNC1[C@@H](O)C(O[C@@H]2C(O)C(O[C@H]3O[C@H]([C@@H](C)NC)CC[C@H]3N)[C@@H](N)C[C@H]2N)OC[C@]1(C)O (stereo partly specified) | 93.4% | 99.6% | 93.2% | 97.3% | 91.3% | 91.2% | 91.2% | 98.9% | 87.7% | 92.8% | 96.7% | 92.4% | 84.5% | 87.1% | 81.2% | 88.5% | 87.7% | 92.1% | 90% | 83.1% | 89.8% | 76.5% | 98.9% | 102% | 104% | 106% | 108% | 98.1% | 106% | 87.4% | 85.3% | 91.4% | 63.7% |
| CC(=O)O[C@@]1(CC[C@H]2[C@@H]3\C=C(C)/C4=C/C(=O)CC[C@]4(C)[C@H]3CC[C@]12C)C(C)=O | 100% | 102% | 99.9% | 110% | 101% | 108% | 107% | 110% | 109% | 99% | 108% | 88.1% | 92.1% | 95.5% | 113% | 102% | 112% | 107% | 118% | 105% | 86.8% | 112% | 115% | 111% | 107% | 96.1% | 109% | 123% | 130% | 107% | 110% | 116% | 119% |
| CO[C@H]1C[C@@H]2CC[C@@H](C)[C@@](O)(O2)C(=O)C(=O)N2CCCC[C@H]2C(=O)O[C@H]([C@H](C)C[C@@H]2CC[C@@H](OC(=O)C(C)(CO)CO)[C@H](OC)C2)CC(=O)[C@H](C)/C=C(\C)[C@@H](O)[C@@H](OC)C(=O)[C@H](C)C[C@H](C)/C=C/C=C/C=C/1C | 108% | 108% | 114% | 117% | 98.3% | 113% | 110% | 110% | 77% | 74.5% | 60.3% | 96.1% | 115% | 106% | 103% | 108% | 101% | 101% | 108% | 93.2% | 71.6% | 64.5% | 91.2% | 113% | 105% | 98.5% | 93.4% | 102% | 98.6% | 92.8% | 93.9% | 82.1% | 64.7% |
| CC1=C(C=CC=C1)N2\C(=N/C3=C(C(=CC=C3)C)C2=O)C[N]4N=CC5=C4N=CN=C5N | 122% | 126% | 121% | 143% | 125% | 129% | 33.4% | 26% | 26.2% | 22.9% | 22.7% | – | – | – | – | – | – | – | – | – | – | – | 114% | 116% | 147% | 133% | 148% | 147% | 49.6% | 44.3% | 40% | 38.5% | 35.2% |
| Cc1ncc(OC[C@@]2(c3cccc(F)c3)C[C@H]2C(=O)Nc2ccc(F)cn2)c(C)n1 | 105% | 93.8% | 125% | 92.7% | 105% | 113% | 107% | 92.2% | 102% | 101% | 116% | 102% | 107% | 105% | 106% | 119% | 110% | 97% | 101% | 112% | 110% | 116% | 108% | 106% | 122% | 120% | 125% | 129% | 117% | 105% | 120% | 117% | 108% |
| O=C1C[C@@H](c2ccc(O)cc2)Oc2cc(O)cc(O)c21 | 128% | 104% | 104% | 100% | 126% | 124% | 116% | 107% | 127% | 106% | 111% | 111% | 108% | 117% | 110% | 120% | 110% | 119% | 108% | 86.2% | 109% | 97.9% | – | – | – | – | – | – | – | – | – | – | – |
